Assay results: ChEMBL document CHEMBL1201862, “PubChem BioAssay data set” (2004)
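A five-concentration, 48-hour dose response in 96-well plates underlies each endpoint, interpolated linearly between surrounding concentrations. Abbreviation: GI50, concentration required for 50% inhibition of growth.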 Active and inactive are the calls of the source. Rule as the data show it: active = GI50 up to about 1.1 µM and inactive = higher.

Experiments:
Assay in all cases: growth of human tumour cells (NCI), 48 h
OVCAR-3 = tested on: OVCAR-3
ACHN = tested on: ACHN
K562 = tested on: K562
SF-295 = tested on: SF-295
SR = tested on: SR
LOX IMVI = tested on: LOX IMVI
MOLT-4 = tested on: MOLT-4
UO-31 = tested on: UO-31
SNB-19 = tested on: SNB-19
Hs-578T = tested on: Hs-578T
NCI-H23 = tested on: NCI-H23
U-251 = tested on: U-251
SF-539 = tested on: SF-539
RXF 393 = tested on: RXF 393
MDA-MB-231 = tested on: MDA-MB-231
SK-MEL-2 = tested on: SK-MEL-2
COLO 205 = tested on: COLO 205
Malme-3M = tested on: Malme-3M
SK-MEL-28 = tested on: SK-MEL-28
OVCAR-5 = tested on: OVCAR-5
CCRF-CEM = tested on: CCRF-CEM
KM12 = tested on: KM12
NCI-H226 = tested on: NCI-H226
UACC-257 = tested on: UACC-257
HCT-15 = tested on: HCT-15
MCF7 = tested on: MCF7
TK-10 = tested on: TK-10
HCT-116 = tested on: HCT-116
IGROV-1 = tested on: IGROV-1
A498 = tested on: A498
M14 = tested on: M14
NCI/ADR-RES = tested on: NCI/ADR-RES
MDA-MB-435 = tested on: MDA-MB-435
HCC 2998 = tested on: HCC 2998
DU-145 = tested on: DU-145
A549 = tested on: A549
OVCAR-4 = tested on: OVCAR-4
NCI-H460 = tested on: NCI-H460
HOP-62 = tested on: HOP-62
786-0 = tested on: 786-0
SK-MEL-5 = tested on: SK-MEL-5
NCI-H522 = tested on: NCI-H522
SN12C = tested on: SN12C
UACC-62 = tested on: UACC-62
HL-60 = tested on: HL-60
HOP-92 = tested on: HOP-92
SF-268 = tested on: SF-268
HT-29 = tested on: HT-29
SK-OV-3 = tested on: SK-OV-3
T47D = tested on: T47D
SNB-75 = tested on: SNB-75
SW-620 = tested on: SW-620
CAKI-1 = tested on: CAKI-1
PC-3 = tested on: PC-3
EKVX = tested on: EKVX
OVCAR-8 = tested on: OVCAR-8
RPMI-8226 = tested on: RPMI-8226
MDA-N = tested on: MDA-N

COc1ccc2nc3ccccc3c(NCCCCN(CCCl)CCCl)c2c1
GI50 (OVCAR-3): 0.118 µM (active)
GI50 (ACHN): 0.041 µM (active)
GI50 (K562): 0.0376 µM (active)
GI50 (SF-295): 0.0863 µM (active)
GI50 (SR): 0.04 µM (active)
GI50 (LOX IMVI): 0.0596 µM (active)
GI50 (MOLT-4): 0.01 µM (active)
GI50 (UO-31): 0.443 µM (active)
GI50 (SNB-19): 0.783 µM (active)
GI50 (Hs-578T): 2 µM (inactive)
GI50 (NCI-H23): 0.147 µM (active)
GI50 (U-251): 0.0752 µM (active)
GI50 (SF-539): 0.136 µM (active)
GI50 (RXF 393): 0.0212 µM (active)
GI50 (MDA-MB-231): 0.7 µM (active)
GI50 (SK-MEL-2): 0.703 µM (active)
GI50 (COLO 205): 0.368 µM (active)
GI50 (Malme-3M): 0.112 µM (active)
GI50 (SK-MEL-28): 0.752 µM (active)
GI50 (OVCAR-5): 0.507 µM (active)
GI50 (CCRF-CEM): 0.01 µM (active)
GI50 (KM12): 0.128 µM (active)
GI50 (NCI-H226): 0.368 µM (active)
GI50 (UACC-257): 1.05 µM (active)
GI50 (HCT-15): 0.244 µM
GI50 (MCF7): 0.202 µM (active)
GI50 (TK-10): 1.17 µM (inactive)
GI50 (HCT-116): 0.0733 µM (active)
GI50 (IGROV-1): 0.227 µM (active)
GI50 (A498): 0.109 µM (active)
GI50 (M14): 0.22 µM (active)
GI50 (NCI/ADR-RES): 0.448 µM (active)
GI50 (MDA-MB-435): 0.323 µM (active)
GI50 (HCC 2998): 1.04 µM (active)
GI50 (DU-145): 0.933 µM (active)
GI50 (A549): 0.162 µM (active)
GI50 (OVCAR-4): 0.148 µM (active)
GI50 (NCI-H460): < 0.0352 µM (active)
GI50 (HOP-62): 0.655 µM (active)
GI50 (786-0): 0.0436 µM (active)
GI50 (SK-MEL-5): 0.292 µM (active)
GI50 (NCI-H522): 0.02 µM (active)
GI50 (SN12C): 0.0843 µM (active)
GI50 (UACC-62): 0.245 µM (active)
GI50 (HL-60): 0.0186 µM (active)
GI50 (HOP-92): 0.527 µM (active)
GI50 (SF-268): 0.0735 µM (active)
GI50 (HT-29): 0.043 µM (active)
GI50 (SK-OV-3): 1.22 µM (inactive)
GI50 (T47D): 1.26 µM (inactive)
GI50 (SNB-75): 0.197 µM (active)
GI50 (SW-620): 0.0188 µM (active)
GI50 (CAKI-1): 0.0253 µM (active)
GI50 (PC-3): 0.316 µM (active)
GI50 (EKVX): 0.535 µM (active)
GI50 (OVCAR-8): 0.0218 µM (active)
GI50 (RPMI-8226): < 0.0476 µM (active)

COc1ccc(/C=C/c2ccnc3ccccc23)cc1
GI50 (OVCAR-3): 13.4 µM (inactive)
GI50 (ACHN): 13.9 µM (inactive)
GI50 (K562): 6.34 µM (inactive)
GI50 (SF-295): 16.9 µM (inactive)
GI50 (SR): 29.3 µM (inactive)
GI50 (LOX IMVI): 16.5 µM (inactive)
GI50 (MOLT-4): 12.2 µM (inactive)
GI50 (UO-31): 0.021 µM (active)
GI50 (SNB-19): 19.3 µM (inactive)
GI50 (Hs-578T): 22.6 µM (inactive)
GI50 (NCI-H23): 12.7 µM (inactive)
GI50 (U-251): 17.1 µM (inactive)
GI50 (SF-539): 21.8 µM (inactive)
GI50 (RXF 393): 19.3 µM (inactive)
GI50 (SK-MEL-2): 20.3 µM (inactive)
GI50 (COLO 205): 16.8 µM (inactive)
GI50 (Malme-3M): 16.7 µM (inactive)
GI50 (SK-MEL-28): 14.5 µM (inactive)
GI50 (OVCAR-5): 21.4 µM (inactive)
GI50 (CCRF-CEM): 10.5 µM (inactive)
GI50 (KM12): 16.5 µM (inactive)
GI50 (NCI-H226): 21.9 µM (inactive)
GI50 (UACC-257): 15.3 µM (inactive)
GI50 (HCT-15): 18.1 µM
GI50 (MCF7): 15.6 µM (inactive)
GI50 (TK-10): 16.2 µM (inactive)
GI50 (HCT-116): 15.7 µM (inactive)
GI50 (IGROV-1): 17.3 µM (inactive)
GI50 (A498): 14.1 µM (inactive)
GI50 (M14): 17.3 µM (inactive)
GI50 (NCI/ADR-RES): 14.2 µM (inactive)
GI50 (MDA-MB-435): 17.1 µM (inactive)
GI50 (HCC 2998): 20.1 µM (inactive)
GI50 (DU-145): 14.8 µM (inactive)
GI50 (A549): 15.4 µM (inactive)
GI50 (OVCAR-4): 3.03 µM (inactive)
GI50 (NCI-H460): 23.6 µM (inactive)
GI50 (HOP-62): 20.5 µM (inactive)
GI50 (786-0): 16.8 µM (inactive)
GI50 (SK-MEL-5): 14.3 µM (inactive)
GI50 (NCI-H522): 17.5 µM (inactive)
GI50 (SN12C): 18.6 µM (inactive)
GI50 (UACC-62): 15.7 µM (inactive)
GI50 (HL-60): 6.78 µM (inactive)
GI50 (HOP-92): 4.66 µM (inactive)
GI50 (SF-268): 15.2 µM (inactive)
GI50 (HT-29): 10.4 µM (inactive)
GI50 (SK-OV-3): 19.1 µM (inactive)
GI50 (T47D): 4.9 µM (inactive)
GI50 (MDA-N): 16.6 µM (inactive)
GI50 (SW-620): 17.7 µM (inactive)
GI50 (CAKI-1): 17.7 µM (inactive)
GI50 (PC-3): 18.2 µM (inactive)
GI50 (EKVX): 13.1 µM (inactive)
GI50 (RPMI-8226): 10.7 µM (inactive)
